[invAb] = inverted abasic unit; m = 2'-O-methyl; r = 2'-OH (RNA); f = 2'-fluoro
What was measured:
[1] = test system: CTGF mRNA; test: CTGF mRNA knockdown (Taqman RT-PCR) after siNA transfection of human NHLF cells; assay type: cell-based; conditions: for % KD Human: 10 nM siNA, 24 hrs, average of 3 experiments, vs non-targeting control; for % KD CTGF mRNA at 10 nM / IC50: mean ± S.D.
Procedure, shortened: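 Normal human lung fibroblasts (5000 cells/well) were transfected 24 h after plating with 10 nM siNA complexed with RNAiMax and harvested 24 h later without a media change. CTGF mRNA was measured by TaqMan RT-qPCR on Cells-to-CT lysates, with β-actin and GAPDH assayed alongside. Knockdown was calculated by comparative Ct (ΔΔCt) against non-targeting control siNA.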

[2] = test system: CTGF mRNA; test: CTGF mRNA knockdown (Taqman RT-PCR) after siNA transfection of mouse NIH 3T3 cells; assay type: cell-based; conditions: mouse NIH3T3 cells, 10 nM siNA, 24 hrs, average of 3 experiments, vs non-targeting control
Procedure, shortened: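 Mouse NIH 3T3 cells, 5000/well, transfected 24 h after plating with siNA at 10 nM final using RNAiMax, 24 h exposure without media change. CTGF mRNA by TaqMan RT-qPCR with GAPDH, knockdown via comparative Ct (2^−ΔΔCt) against non-targeting control siNA.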

Substance	% KD Human [1] [%]	% KD CTGF mRNA at 10 nM [1] [%]	IC50 [1] [nM]	% KD Mouse [2] [%]
48048-DC: siNA duplex; sense SEQ ID NO: 61 B GAuAGcAucuuAuAcGAGu TTB; antisense SEQ ID NO: 62 ACUcGuAuAAGAuGcuAucUU (sense GAUAGCAUCUUAUACGAGUTT; antisense ACUCGUAUAAGAUGCUAUCUU; sense: DNA at AGT, 2'-fluoro at CU, [invAb] at 5' end, 3' end, backbone not given here; antisense: sugars from the 5' end rrrfmfmfmmmmfmffmffmm, backbone not given here)	80 ± 3	80 ± 3	0.049 ± 0.016	21 ± 5
48042-DC: siNA duplex; sense SEQ ID NO: 49 B GAcAuuAAcucAuuAGAcu TTB; antisense SEQ ID NO: 50 AGUcuAAuGAGuuAAuGucUU (sense GACAUUAACUCAUUAGACUTT; antisense AGUCUAAUGAGUUAAUGUCUU; sense: DNA at AGT, 2'-fluoro at CU, [invAb] at 5' end, 3' end, backbone not given here; antisense: sugars from the 5' end rrrffmmfmmmffmmfmffmm, backbone not given here)	90 ± 1	90 ± 1	0.095 ± 0.022	30 ± 4
48055-DC: siNA duplex; sense SEQ ID NO: 75 B cAAGuuAuuuAAAucuGuu TTB; antisense SEQ ID NO: 76 AACAGAuuuAAAuAAcuuGUU (sense CAAGUUAUUUAAAUCUGUUTT; antisense AACAGAUUUAAAUAACUUGUU; sense: DNA at AGT, 2'-fluoro at CU, [invAb] at 5' end, 3' end, backbone not given here; antisense: sugars from the 5' end rrrmmmfffmmmfmmfffmmm, backbone not given here)	88 ± 0	88 ± 0	0.11 ± 0.038	24 ± 2
48047-DC: siNA duplex; sense SEQ ID NO: 59 B cGAGuAAuAuGccuGcuAu TTB; antisense SEQ ID NO: 60 AUAGcAGGcAuAuuAcucGUU (sense CGAGUAAUAUGCCUGCUAUTT; antisense AUAGCAGGCAUAUUACUCGUU; sense: DNA at AGT, 2'-fluoro at CU, [invAb] at 5' end, 3' end, backbone not given here; antisense: sugars from the 5' end rrrmfmmmfmfmffmfffmmm, backbone not given here)	81 ± 3	81 ± 3	0.071 ± 0.03	18 ± 3
48046-DC: siNA duplex; sense SEQ ID NO: 57 B cAcAGcAccAGAAuGuAuA TTB; antisense SEQ ID NO: 58 UAUAcAuucuGGuGcuGuGUU (sense CACAGCACCAGAAUGUAUATT; antisense UAUACAUUCUGGUGCUGUGUU; sense: DNA at AGT, 2'-fluoro at CU, [invAb] at 5' end, 3' end, backbone not given here; antisense: sugars from the 5' end rrrmfmffffmmfmffmfmmm, backbone not given here)	85 ± 3	85 ± 3	0.031 ± 0.011	19 ± 3

From US20120016011A1, “RNA Interference Mediated Inhibition of Connective Tissue Growth Factor (CTGF) Gene Expression Using Short Interfering Nucleic Acid (siNA)” (Merck Sharp & Dohme Corp., priority 2009, published 2012)
